We go through 1 substance from patent publication US20220241207A1, “EXTENDED-RELEASE SOLID ORAL DOSAGE FORM COMPRISING VITAMIN B12 AND A VITAMIN B12 DEPLETING DRUG” (DSM IP ASSETS B.V., priority 2019, published 2022).

The procedure of this data set:
The solubilization medium was: • SIF (simulated intestinal fluid, pH=6.8, prepared according to Ph. Eur.)
The dissolution medium was heated to 37° C. and the analyses were performed at this temperature. During the analyses, the salts were added in access to the solubilization media and left to mix for 24 h. Afterwards, the solutions were filtered, and the precipitates were investigated using ATR-IR analysis to confirm the presence of the starting material (e.g. respective Ca salt). Attenuated total reflection (ATR) is a sampling technique used in conjunction with infrared spectroscopy which enables samples to be examined directly in the solid or liquid state without further preparation. The filtered solutions were analysed for Ca^2+ ions content.

As for “dicalciumphosphat anhydrous [dicalcium phosphate anhydrous]”, the “Ca^2+ ions average” value was found to be 0.028 mg/mL. This substance returned a solubility average (pH 6.8) of 0.09 mg/mL.
